{
  "source": "ChEMBL document CHEMBL3797126",
  "about": "“Oxaspirol B with p97 Inhibitory Activity and Other Oxaspirols from Lecythophora sp. FL1375 and FL1031, Endolichenic Fungi Inhabiting Parmotrema tinctorum and Cladonia evansii” (J Nat Prod, 2016)",
  "key": {"[1]": {"target": "T1, Transitional endoplasmic reticulum ATPase (Homo sapiens, UniProt P55072)", "test": "Inhibition of p97 (unknown origin) ATPase activity up to 200 uM after 10 mins by malachite green dye based visible spectrophotometry"}, "[2]": {"target": "T1, Transitional endoplasmic reticulum ATPase", "test": "Reversible inhibition of p97 (unknown origin) ATPase activity after prolonged incubation followed by dialysis"}, "[3]": {"target": "T1, Transitional endoplasmic reticulum ATPase", "test": "Inhibition of p97 (unknown origin) ATPase activity after 10 mins by malachite green dye based visible spectrophotometry"}, "[4]": {"target": "Transitional endoplasmic reticulum ATPase (Homo sapiens, UniProt P55072, C209A)", "sequence (P55072 2-806 C209A limits assumed)": "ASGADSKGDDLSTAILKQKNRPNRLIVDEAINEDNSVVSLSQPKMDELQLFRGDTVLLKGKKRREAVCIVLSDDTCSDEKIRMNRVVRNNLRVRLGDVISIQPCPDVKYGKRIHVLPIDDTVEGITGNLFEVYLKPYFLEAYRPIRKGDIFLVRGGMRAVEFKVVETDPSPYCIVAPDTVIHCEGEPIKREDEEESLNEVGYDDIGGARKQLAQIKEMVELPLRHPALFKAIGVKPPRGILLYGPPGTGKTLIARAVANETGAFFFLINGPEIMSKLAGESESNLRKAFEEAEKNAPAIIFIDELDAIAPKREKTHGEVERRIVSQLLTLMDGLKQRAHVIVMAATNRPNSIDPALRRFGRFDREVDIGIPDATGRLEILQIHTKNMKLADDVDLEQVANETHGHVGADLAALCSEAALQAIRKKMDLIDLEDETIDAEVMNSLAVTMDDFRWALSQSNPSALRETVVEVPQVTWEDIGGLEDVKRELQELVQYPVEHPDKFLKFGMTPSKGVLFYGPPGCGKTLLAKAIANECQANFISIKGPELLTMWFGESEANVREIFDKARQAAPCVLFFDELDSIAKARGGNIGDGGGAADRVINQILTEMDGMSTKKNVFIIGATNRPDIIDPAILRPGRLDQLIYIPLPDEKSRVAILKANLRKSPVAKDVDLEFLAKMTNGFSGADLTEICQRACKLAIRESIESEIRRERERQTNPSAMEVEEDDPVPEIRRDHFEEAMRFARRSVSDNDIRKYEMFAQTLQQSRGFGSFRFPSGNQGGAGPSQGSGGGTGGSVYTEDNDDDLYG", "test": "Inhibition of p97-C209A mutant (unknown origin) after 10 mins by malachite green dye based visible spectrophotometry"}, "[5]": {"target": "Transitional endoplasmic reticulum ATPase (Homo sapiens, UniProt P55072, C522A)", "sequence (P55072 2-806 C522A limits assumed)": "as the sequence (P55072 2-806 C209A limits assumed) above, with A208C, C521A counted along it", "test": "Inhibition of p97-C522A mutant (unknown origin) after 10 mins by malachite green dye based visible spectrophotometry"}, "[6]": {"target": "ATP-dependent clpX-like chaperone, mitochondrial (Homo sapiens) (UniProt O76031)", "sequence (O76031 whole entry)": "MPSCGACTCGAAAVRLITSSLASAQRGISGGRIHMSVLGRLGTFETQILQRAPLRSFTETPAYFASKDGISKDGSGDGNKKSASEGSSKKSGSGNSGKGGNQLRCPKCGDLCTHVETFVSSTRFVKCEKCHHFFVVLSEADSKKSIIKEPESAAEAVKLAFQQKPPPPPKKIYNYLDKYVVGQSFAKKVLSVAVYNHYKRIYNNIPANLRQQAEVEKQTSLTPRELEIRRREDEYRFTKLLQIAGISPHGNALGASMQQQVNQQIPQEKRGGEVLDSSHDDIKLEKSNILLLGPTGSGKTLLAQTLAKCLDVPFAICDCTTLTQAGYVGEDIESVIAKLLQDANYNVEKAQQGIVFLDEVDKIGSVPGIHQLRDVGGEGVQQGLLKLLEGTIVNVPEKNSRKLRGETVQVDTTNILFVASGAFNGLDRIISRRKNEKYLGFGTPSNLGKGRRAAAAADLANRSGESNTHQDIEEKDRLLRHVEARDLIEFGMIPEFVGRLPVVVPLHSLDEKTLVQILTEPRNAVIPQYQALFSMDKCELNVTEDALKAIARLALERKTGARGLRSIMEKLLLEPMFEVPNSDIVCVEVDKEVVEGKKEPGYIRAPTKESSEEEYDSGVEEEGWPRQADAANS", "test": "Inhibition of type 1 AAA+ chaperone ClpX (unknown origin) up to 200 uM"}, "[7]": {"target": "Vesicle-fusing ATPase (Homo sapiens) (UniProt P46459)", "sequence (P46459 whole entry)": "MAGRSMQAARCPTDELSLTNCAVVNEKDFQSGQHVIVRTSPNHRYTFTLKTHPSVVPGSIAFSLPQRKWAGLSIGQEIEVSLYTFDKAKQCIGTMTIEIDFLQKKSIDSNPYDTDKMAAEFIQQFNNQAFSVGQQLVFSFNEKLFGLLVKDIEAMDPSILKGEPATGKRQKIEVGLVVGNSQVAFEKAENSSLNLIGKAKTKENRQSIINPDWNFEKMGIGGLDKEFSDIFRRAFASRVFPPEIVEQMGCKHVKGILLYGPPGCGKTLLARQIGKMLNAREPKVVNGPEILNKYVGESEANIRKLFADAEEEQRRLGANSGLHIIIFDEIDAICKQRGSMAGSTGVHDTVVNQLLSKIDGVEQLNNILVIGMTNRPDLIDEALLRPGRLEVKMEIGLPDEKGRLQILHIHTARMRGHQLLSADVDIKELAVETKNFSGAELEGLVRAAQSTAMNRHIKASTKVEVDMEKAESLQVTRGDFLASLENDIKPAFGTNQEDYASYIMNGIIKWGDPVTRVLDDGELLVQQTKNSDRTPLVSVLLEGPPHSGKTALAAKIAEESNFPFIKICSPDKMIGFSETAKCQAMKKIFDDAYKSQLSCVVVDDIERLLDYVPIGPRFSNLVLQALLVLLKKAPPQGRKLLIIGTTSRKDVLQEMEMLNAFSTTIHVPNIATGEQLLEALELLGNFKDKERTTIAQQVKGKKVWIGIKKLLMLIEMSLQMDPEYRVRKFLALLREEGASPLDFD", "test": "Inhibition of type 2 AAA+ N-ethylmaleimide sensitive factor (unknown origin) up to 200 uM"}, "[8]": {"target": "T1, Transitional endoplasmic reticulum ATPase", "test": "Inhibition of p97 (unknown origin) ATPase in HEK293 cells expressing UbG76VGFP fusion protein assessed as level of UbG76VGFP rescued by measuring GFP fluorescence loss by flow cytometry", "assay_type": "cell-based"}, "[9]": {"target": "T1, Transitional endoplasmic reticulum ATPase", "test": "Inhibition of p97 (unknown origin) ATPase in HEK293 cells expressing T cell receptor alpha-GFP assessed as level of T cell receptor alpha-GFP rescued by flow cytometry", "assay_type": "cell-based"}, "[10]": {"target": "T1, Transitional endoplasmic reticulum ATPase", "details": "200 uM", "description": "Inhibition of p97 cysteine-less mutant (unknown origin) at 200 uM after 10 mins by malachite green dye based visible spectrophotometry"}, "[11]": {"target": "T1, Transitional endoplasmic reticulum ATPase", "details": "100 uM", "description": "Reversible inhibition of p97 (unknown origin) ATPase activity at 100 uM after prolonged incubation of 6 hrs followed by dialysis for 2 hrs by malachite green dye based visible spectrophotometry"}, "[12]": {"target": "chaperonin GroEL (Escherichia coli) (UniProt P0A6F5)", "sequence (P0A6F5 whole entry, looked up)": "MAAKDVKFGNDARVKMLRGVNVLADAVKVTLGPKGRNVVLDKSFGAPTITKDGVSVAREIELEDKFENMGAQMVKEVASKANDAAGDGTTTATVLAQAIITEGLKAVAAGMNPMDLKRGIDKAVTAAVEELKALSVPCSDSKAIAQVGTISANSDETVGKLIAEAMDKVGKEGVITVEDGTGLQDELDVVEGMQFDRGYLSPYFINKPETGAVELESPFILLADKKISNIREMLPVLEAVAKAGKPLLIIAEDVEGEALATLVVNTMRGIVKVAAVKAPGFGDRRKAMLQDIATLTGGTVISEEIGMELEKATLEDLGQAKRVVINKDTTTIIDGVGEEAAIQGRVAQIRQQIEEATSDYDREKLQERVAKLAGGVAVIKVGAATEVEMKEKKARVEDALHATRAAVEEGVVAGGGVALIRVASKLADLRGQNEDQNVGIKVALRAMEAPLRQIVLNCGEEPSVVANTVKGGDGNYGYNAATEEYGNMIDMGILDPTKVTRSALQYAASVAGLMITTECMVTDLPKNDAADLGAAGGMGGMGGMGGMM", "test": "Inhibition of Escherichia coli chaperonin GroEL up to 200 uM"}},
  "note": "The source made the active and inactive calls. No cut-off for these calls is given here.",
  "data": [
    {"smiles": "C=C1OC(=O)[C@@]2(C1=O)[C@H](/C=C/C=C/CCC)C=C[C@@H](OC(C)=O)[C@@H]2OC(C)=O", "values": [
      {"measurement": "inhibition", "setting": "[1]", "result": "inactive"}
    ]},
    {"smiles": "C=C1OC(=O)[C@]2(C1=O)[C@H](/C=C/C=C/CCC)C=C[C@@H](OC(C)=O)[C@@H]2OC(C)=O", "values": [
      {"measurement": "inhibition", "setting": "[1]", "result": "inactive"}
    ]},
    {"smiles": "C[C@H]1CCC/C=C/C(=O)c2c(O)cc(O)cc2CC(=O)O1", "values": [
      {"measurement": "inhibition", "setting": "[2]", "result": "inactive"}
    ]},
    {"smiles": "C=C1OC(=O)C2(C1=O)[C@H](/C=C/C=C/CCC)C=C[C@@H](O)[C@@H]2O", "note": "(mixture of isomers)", "values": [
      {"measurement": "IC50", "setting": "[3]", "result": 31.2, "unit": "µM"},
      {"measurement": "IC50", "setting": "[4]", "result": 18, "unit": "µM"},
      {"measurement": "IC50", "setting": "[5]", "result": 26.3, "unit": "µM"},
      {"measurement": "inhibition", "setting": "[6]", "result": "inactive"},
      {"measurement": "inhibition", "setting": "[7]", "result": "inactive"},
      {"measurement": "inhibition", "setting": "[8]", "result": "Dose-dependent effect"},
      {"measurement": "inhibition", "setting": "[9]", "result": "Dose-dependent effect"},
      {"measurement": "inhibition", "setting": "[10]", "result": "inactive"},
      {"measurement": "inhibition", "setting": "[11]", "result": "Active"},
      {"measurement": "inhibition", "setting": "[12]", "result": "inactive"}
    ]}
  ]
}
